Read-outs that look alike come from different tables or passages of the source.
Columns and labels:
[1] = molecular target: T1, human D4R (Homo sapiens, UniProt P21917); settings: for D4R Ant. (%): cAMP, antagonist mode, 10 μM forskolin and 10 nM dopamine, normalized to spiperone; for Emax: read-out: D4R Emax (%)
T1 sequence (P21917 1-419): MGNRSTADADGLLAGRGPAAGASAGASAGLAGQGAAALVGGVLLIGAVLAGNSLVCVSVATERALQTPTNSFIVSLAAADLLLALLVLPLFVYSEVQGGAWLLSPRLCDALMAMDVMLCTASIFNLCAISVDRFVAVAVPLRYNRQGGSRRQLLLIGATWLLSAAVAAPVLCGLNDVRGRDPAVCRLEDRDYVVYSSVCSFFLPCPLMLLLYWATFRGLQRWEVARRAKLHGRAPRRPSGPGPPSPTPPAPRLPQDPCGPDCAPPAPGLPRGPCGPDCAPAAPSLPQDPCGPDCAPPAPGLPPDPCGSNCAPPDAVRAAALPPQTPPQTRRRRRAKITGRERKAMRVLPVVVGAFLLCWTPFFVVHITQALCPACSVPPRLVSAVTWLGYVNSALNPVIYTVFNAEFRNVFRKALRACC

[2] = molecular target: human D3R (Homo sapiens, UniProt P35462); experiment: DiscoverX PathHunter β-arrestin recruitment assay, D3R; settings: for Emax: read-out: D3R Emax (%)
[3] = molecular target: T1, human D4R; experiment: DiscoverX PathHunter β-arrestin recruitment assay, D4R; settings: for D4R average activity at the highest tested dose: at 100 μM (Emax ND); for D4R Ant. (%): antagonist mode, EC80 dopamine (1 μM), normalized to spiperone
[4] = molecular target: T2, D5 (Homo sapiens, UniProt P21918); experiment: PDSP primary screen, D5; type: binding; settings: 10 µM compound
T2 construct: Psychoactive Drug Screening Program (PDSP)
From the text: (§1) Receptor Primary Secondary Primary Secondary Primary Secondary Primary Secondary screen assay screen assay screen assay screen assay […]
(§2) inhibition in primary assessment.

[5] = molecular target: human D2R long isoform (Homo sapiens, UniProt P14416); experiment: DiscoverX PathHunter β-arrestin recruitment assay, D2R; settings: for Emax: read-out: D2R Emax (%)
[6] = molecular target: T3, D1 (Homo sapiens, UniProt P21728); experiment: PDSP primary screen and secondary assay, D1; type: binding; settings: 10 µM compound
T3 construct: Psychoactive Drug Screening Program (PDSP)
From the text: as §1, §2

[7] = Phase I metabolic stability in human liver microsomes (with NADPH); type: in vitro ADME; settings: pH 7.4, presence of NADPH, mean ± SD, n = 3
Experimental: (§3) We evaluated the Phase I metabolic stability of compounds 2−7 and 14−19 using rat and human liver microsomes, as previously described.[45]
(§4) Phase I metabolic stability assays were conducted using rat and human liver microsomes as previously described[45],[70] with minor modifications. In brief, the reactions were carried out with 100 mM potassium phosphate buffer, pH 7.4, in the presence of NADPH regenerating system (1.3 mM NADPH, 3.3 mM glucose 6-phosphate, 3.3 mM MgCl2, 0.4 U/mL glucose-6-phosphate dehydrogenase, 50 μM sodium citrate). Negative controls without cofactors were assessed to determine the non-CYP-mediated metabolism. Compound disappearance was monitored over time using a liquid chromatography and tandem mass spectrometry (LC/MS) method. All reactions were performed in triplicate.
(§5) Chromatographic analysis was performed on a Dionex ultra high-performance LC system coupled with Q Exactive Focus orbitrap mass spectrometer (Thermo Fisher Scientific Inc., Waltham MA). Separation was achieved using Agilent Eclipse Plus column (100 × 2.1 mm^2 i.d.; maintained at 35 °C) packed with a 1.8 μm C18 stationary phase. […] The total run time for each analyte was 6.5 min. Pumps were operated at a flow rate of 0.3 mL/min. The mass spectrometer controlled by Xcalibur software 4.0.27.13 (Thermo Scientific) was operated with a HESI ion source in positive ionization mode. Compounds were identified in the full-scan mode (from m/z 50 to 750) by comparing t = 0 samples with t = 30 min and t = 60 min samples.

[8] = Phase I metabolic stability in rat liver microsomes (with NADPH); type: in vitro ADME; settings: pH 7.4, presence of NADPH, mean ± SD, n = 3
Experimental: as §3, §4, §5

[9] = Pharmacokinetics study in rats (plasma and brain); type: in vivo, Sprague−Dawley rats; settings: rat, 5 mg/kg IP
Experimental: Given their adequate in vitro stability profiles, we next evaluated the in vivo pharmacokinetic profiles of 14, 15, 17, and 18 in rats. Sprague−Dawley rats were dosed with 5 mg/kg (14, 15, 17) or 10 mg/kg (18), i.p., and plasma and brain levels of each drug were measured 0−6 h postdose.
All animal experiments were performed following the protocols evaluated and approved by the Animal Care and Use Committee at Johns Hopkins University (Ethics Approval Number: RA24M403). Pharmacokinetic studies in Sprague−Dawley (SD) rats were conducted according to protocols approved. SD rats obtained from Harlan were maintained on a 12 h light−dark cycle with ad libitum access to food and water. Test compound was administered via i.p. injection at a dose of 10 mg/kg (100% saline vehicle, 10 mL/kg volume). The rats were sacrificed at specified time points (0.25, 0.5 h, 1, 2, 4, and 6 h) post drug administration. For the collection of plasma and brain tissue, animals were euthanized with CO2, and blood samples were collected in heparinized microtubes by cardiac puncture. Brains were dissected and immediately flash-frozen (−80 °C). Blood samples were spun at 2000g for 15 min, and plasma was removed and stored at −80 °C until analysis (as described below).
Quantitation of triazole analogs 14, 15, 17, and 18 was performed using liquid chromatography with tandem mass spectrometry (LC/MS-MS) methods. Briefly, calibration standards were prepared using respective tissue (naïve plasma and brain) with additions of the test compounds. For quantifying the test compounds in the pharmacokinetic samples, plasma samples (20 μL) were processed using a single liquid extraction method by addition of 100 μL of acetonitrile containing internal standard (losartan: 0.5 μM), followed by vortex-mixing for 30 s and then centrifugation at 10,000g for 10 min at 4 °C. Brain tissues were diluted 1:5 w/v with acetonitrile containing losartan (0.5 μm) and homogenized, followed by vortex-mixing and centrifugation at 10,000g for 10 min at 4 °C. A 50 μL aliquot of the supernatant was diluted with 50 μL of water and transferred to 250 μL polypropylene autosampler vials sealed with Teflon caps. Two μL of the sample was injected into the LC/MS/MS system for analysis. Chromatographic analysis was performed using an Accela ultra high-performance system consisting of an analytical pump and an autosampler coupled with a TSQ Vantage mass spectrometer. […] The mobile phase consisted of 0.1% formic acid in acetonitrile and 0.1% formic acid in water with gradient elution, starting with 10% organic phase (from 0 to 1 min) linearly increasing to 95% (from 1 to 2 min), and re-equilibrating to 10% by 3 min. The total run time for each analyte was 3.5 min. Pumps were operated at a flow rate of 0.4 mL/min. […] Plasma concentrations (nmol/mL) as well as brain tissue concentrations (nmol/g) were determined and plots of mean plasma concentration versus time were constructed. Noncompartmental analysis modules in Phoenix WinNonlin version 7.0 (Certara USA, Inc., Princeton, NJ) were used to quantify exposures (AUC0−t) and half-life (t1/2).

[10] = antagonist mode, EC80 dopamine (1 μM), normalized to spiperone

Sequence of human D3R (P35462 whole entry): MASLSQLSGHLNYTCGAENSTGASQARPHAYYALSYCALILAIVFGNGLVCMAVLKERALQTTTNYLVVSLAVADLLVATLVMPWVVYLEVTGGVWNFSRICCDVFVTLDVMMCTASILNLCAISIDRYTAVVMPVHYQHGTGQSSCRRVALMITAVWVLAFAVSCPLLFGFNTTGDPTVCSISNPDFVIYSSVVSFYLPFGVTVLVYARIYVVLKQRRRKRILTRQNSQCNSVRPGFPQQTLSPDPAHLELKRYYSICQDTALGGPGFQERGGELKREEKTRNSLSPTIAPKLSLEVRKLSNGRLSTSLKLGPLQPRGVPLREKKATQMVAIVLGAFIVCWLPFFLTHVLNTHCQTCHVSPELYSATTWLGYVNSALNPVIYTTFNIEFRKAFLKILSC
Sequence of human D2R long isoform (P14416 whole entry, canonical isoform): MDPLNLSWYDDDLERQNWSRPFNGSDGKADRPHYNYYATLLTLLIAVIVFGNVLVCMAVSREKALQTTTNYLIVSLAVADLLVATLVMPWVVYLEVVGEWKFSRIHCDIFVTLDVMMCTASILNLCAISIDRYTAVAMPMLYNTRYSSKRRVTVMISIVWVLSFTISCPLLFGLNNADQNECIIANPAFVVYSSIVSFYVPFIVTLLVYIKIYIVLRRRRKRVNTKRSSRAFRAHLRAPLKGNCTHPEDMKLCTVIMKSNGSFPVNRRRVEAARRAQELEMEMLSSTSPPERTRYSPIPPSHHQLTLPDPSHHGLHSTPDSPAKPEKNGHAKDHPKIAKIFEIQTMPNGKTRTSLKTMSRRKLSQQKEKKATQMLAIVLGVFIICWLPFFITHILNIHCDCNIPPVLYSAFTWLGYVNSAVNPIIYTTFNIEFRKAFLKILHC
T2 sequence (P21918 whole entry): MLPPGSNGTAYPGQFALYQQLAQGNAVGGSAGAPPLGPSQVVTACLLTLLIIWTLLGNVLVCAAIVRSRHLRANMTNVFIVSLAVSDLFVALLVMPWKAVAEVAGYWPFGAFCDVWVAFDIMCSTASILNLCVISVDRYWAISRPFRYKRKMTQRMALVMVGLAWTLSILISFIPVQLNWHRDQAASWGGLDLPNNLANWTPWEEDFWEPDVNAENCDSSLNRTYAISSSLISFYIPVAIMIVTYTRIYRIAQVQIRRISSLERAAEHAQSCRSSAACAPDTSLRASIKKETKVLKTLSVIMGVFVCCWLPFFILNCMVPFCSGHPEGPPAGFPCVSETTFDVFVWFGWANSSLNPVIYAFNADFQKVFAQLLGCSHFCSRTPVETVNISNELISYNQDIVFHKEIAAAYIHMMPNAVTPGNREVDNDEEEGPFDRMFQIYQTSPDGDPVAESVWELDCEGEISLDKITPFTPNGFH
T3 sequence (P21728 whole entry): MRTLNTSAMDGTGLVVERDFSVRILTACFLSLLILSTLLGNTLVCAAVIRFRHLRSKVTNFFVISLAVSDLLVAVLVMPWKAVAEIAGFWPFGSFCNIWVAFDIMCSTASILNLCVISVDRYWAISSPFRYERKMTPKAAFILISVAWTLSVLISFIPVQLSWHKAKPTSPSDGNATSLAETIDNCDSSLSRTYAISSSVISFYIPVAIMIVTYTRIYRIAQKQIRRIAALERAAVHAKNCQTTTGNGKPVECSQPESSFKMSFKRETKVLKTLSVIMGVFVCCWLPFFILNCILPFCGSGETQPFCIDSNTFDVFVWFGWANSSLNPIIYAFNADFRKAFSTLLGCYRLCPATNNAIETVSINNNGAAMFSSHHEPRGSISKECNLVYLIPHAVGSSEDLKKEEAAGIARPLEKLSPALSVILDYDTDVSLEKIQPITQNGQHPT

Row | SMILES | EC50 [1] [µM] | IC50 [1] [µM] | D4R Ant. (%) [1] [%] | Emax [1] [%] | EC50 [2] [µM] | Emax [2] [%] | EC50 [3] [µM] | IC50 [3] [µM] | D4R average activity at the highest tested dose ([3]; agonist mode) | D4R Ant. (%) [3] [%] | EC50 [5] [µM] | IC50 [5] [µM] | D2R Ant (%) [5, 10] [%] | Emax [5] [%] | half-life [7] [min] | half-life [8] [min] | other results
1 | Cc1cccc(-n2cc(CN3CCN(c4ccccn4)CC3)nn2)c1 [Compound 15, 1-(Pyridin-2-yl)-4-((1-(m-tolyl)-1H-1,2,3-triazol-4-yl)-methyl)-piperazine] | 0.00529 ± 0.00139 | 0.0576 ± 0.00544 | 40 ± 1 | 43 ± 6 | 3.6 ± 0.48 | 110 ± 29 | > 100 | 0.31 ± 0.049 | ND (14% at 100 μM) | 82.8 ± 3.3 | > 100 | 9.05 ± 2.5 | 87.7 ± 2.6 | 16.5 ± 9.8 | 61.4 ± 7.27 | 32.9 ± 1.16 | inhibition at 10 µM [4]: 1.76%; inhibition at 10 µM [6]: 2.16%; Kp ([9]; Sprague-Dawley, brain and plasma, ip, 5 mg/kg, AUC brain/plasma, read-out: brain: Plasma ratio): 0.72; half-life ([9]; Sprague-Dawley, brain, ip, 5 mg/kg, brain, read-out: half-life (h) brain (converted)): 1.02 h; half-life ([9]; Sprague-Dawley, plasma and brain, ip, 5 mg/kg, tissue not specified, read-out: half-life (converted)): > 1.1 h; half-life ([9]; Sprague-Dawley, plasma, ip, 5 mg/kg, plasma, read-out: half-life (h) plasma (converted)): 1.09 h; Tmax ([9]; Sprague-Dawley, brain, read-out: Tmax (h) brain): 0.25 h; AUC ([9]; Sprague-Dawley, plasma): 2.65 ± 0.46 µM·h; Cmax ([9]; Sprague-Dawley, plasma): 3.28 ± 1.26 µM; Tmax ([9]; Sprague-Dawley, plasma, read-out: Tmax (h) plasma): 0.25 h; AUC brain ([9]; brain): 1.91 ± 0.31 nmol·h/g; Cmax brain ([9]; brain): 1.83 ± 0.68 nmol/g; peak in vivo brain concentrations expected ([9]; from brain Cmax): greater than 1.8 μM
2 | Cc1cccc(-n2cc(CN3CCN(c4ncccn4)CC3)nn2)c1 [Compound 16, 2-(4-((1-(m-Tolyl)-1H-1,2,3-triazol-4-yl)methyl)-piperazin-1-yl)pyrimidine] | 0.00768 ± 0.00188 | 0.0679 ± 0.0113 | 45 ± 3 | 39 ± 7 | > 100 | 75 ± 14 | > 100 | 0.14 ± 0.035 | ND (14% at 100 μM) | 85.2 ± 2.4 | 6.87 ± 2.5 | 19 | 73.2 ± 4.6 | 25.3 ± 4.9 | 40.1 ± 1.91 | 68.1 ± 9.51 | IC50 [2]: > 10 µM; D3R Ant. (%) [2, 10]: 105 ± 4%; D4R Emax (%) ([3]; agonist mode, in comparison to dopamine): did not show partial agonist activity
3 | CCc1cccc(-n2cc(CN3CCN(c4ccccn4)CC3)nn2)c1 [Compound 19, 1-((1-(3-Ethylphenyl)-1H-1,2,3-triazol-4-yl)methyl)-4-(pyridin-2-yl)piperazine] |  |  |  |  |  |  |  |  |  |  |  |  |  |  | 37.5 ± 0.68 | 28 ± 0.56 | 
4 | O=C(CCCN1CCC2(CC1)C(=O)NCN2c1ccccc1)c1ccc(F)cc1 [Spiperone, reference compound] |  |  | 100 ± 0 |  |  |  |  |  |  | 100 ± 0 |  |  |  |  |  |  | D2R Ant (%) [5]: 100 ± 0%

Source: paper PMC12910498 (ACS pharmacology & translational science, 2026)
